Measurements taken from publication PMC9329436, “Optimization of the 4-anilinoquin(az)oline scaffold as epidermal growth factor receptor (EGFR) inhibitors for chordoma utilizing a toxicology profiling assay platform” (Scientific Reports, 2022).
Like-named read-outs stand apart in the source and are kept apart here.

Key:
Type in all cases: biochemical
[1] = biological target: 320 wild-type protein kinases (Homo sapiens, UniProt P06241); details: FYN, singlicate
Text: (§1) Table S4. Profiling of two compounds at two concentrations against 320 wild-type protein kinases; singlicate measurement; Residual activities (% of control).

[2] = biological target: T1, 320 wild-type protein kinases (Homo sapiens, UniProt P43403); details: kinase ZAP70, singlicate
T1 sequence (P43403 1-619): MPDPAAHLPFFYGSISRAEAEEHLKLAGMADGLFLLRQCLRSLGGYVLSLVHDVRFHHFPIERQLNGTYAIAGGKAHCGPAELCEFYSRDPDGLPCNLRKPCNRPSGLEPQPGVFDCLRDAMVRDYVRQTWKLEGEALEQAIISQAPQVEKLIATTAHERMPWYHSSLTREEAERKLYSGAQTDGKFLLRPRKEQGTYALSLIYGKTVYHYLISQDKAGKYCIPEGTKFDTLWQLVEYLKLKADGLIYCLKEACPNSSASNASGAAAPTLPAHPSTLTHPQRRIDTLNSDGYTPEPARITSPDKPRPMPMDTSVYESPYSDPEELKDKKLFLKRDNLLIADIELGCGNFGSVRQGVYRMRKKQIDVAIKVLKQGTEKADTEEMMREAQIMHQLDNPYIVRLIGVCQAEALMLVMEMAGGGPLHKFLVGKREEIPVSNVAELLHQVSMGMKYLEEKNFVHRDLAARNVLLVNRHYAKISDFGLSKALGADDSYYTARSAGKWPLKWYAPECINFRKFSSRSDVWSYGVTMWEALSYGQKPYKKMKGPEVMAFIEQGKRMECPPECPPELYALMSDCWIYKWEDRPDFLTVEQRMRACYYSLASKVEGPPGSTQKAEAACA
Text: as §1

[3] = biological target: 320 wild-type protein kinases (Homo sapiens, UniProt P49761); details: singlicate
Chain of 320 wild-type protein kinases (Homo sapiens, UniProt P49761) (P49761 whole entry): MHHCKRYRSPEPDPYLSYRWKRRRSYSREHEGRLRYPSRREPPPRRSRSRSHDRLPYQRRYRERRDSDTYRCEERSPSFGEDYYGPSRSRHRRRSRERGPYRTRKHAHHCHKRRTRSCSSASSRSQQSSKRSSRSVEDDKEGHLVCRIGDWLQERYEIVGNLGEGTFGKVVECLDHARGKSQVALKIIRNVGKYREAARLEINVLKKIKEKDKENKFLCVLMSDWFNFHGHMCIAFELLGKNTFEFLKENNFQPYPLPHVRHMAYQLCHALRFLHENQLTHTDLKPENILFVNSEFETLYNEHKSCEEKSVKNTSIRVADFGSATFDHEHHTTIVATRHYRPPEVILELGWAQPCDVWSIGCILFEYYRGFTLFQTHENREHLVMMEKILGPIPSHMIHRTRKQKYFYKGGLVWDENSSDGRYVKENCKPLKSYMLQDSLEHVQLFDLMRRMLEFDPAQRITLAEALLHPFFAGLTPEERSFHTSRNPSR
Text: as §1

[4] = biological target: T2, 320 wild-type protein kinases (Homo sapiens, UniProt Q05513); details: PKC-zeta, singlicate
T2 sequence (Q05513 1-592): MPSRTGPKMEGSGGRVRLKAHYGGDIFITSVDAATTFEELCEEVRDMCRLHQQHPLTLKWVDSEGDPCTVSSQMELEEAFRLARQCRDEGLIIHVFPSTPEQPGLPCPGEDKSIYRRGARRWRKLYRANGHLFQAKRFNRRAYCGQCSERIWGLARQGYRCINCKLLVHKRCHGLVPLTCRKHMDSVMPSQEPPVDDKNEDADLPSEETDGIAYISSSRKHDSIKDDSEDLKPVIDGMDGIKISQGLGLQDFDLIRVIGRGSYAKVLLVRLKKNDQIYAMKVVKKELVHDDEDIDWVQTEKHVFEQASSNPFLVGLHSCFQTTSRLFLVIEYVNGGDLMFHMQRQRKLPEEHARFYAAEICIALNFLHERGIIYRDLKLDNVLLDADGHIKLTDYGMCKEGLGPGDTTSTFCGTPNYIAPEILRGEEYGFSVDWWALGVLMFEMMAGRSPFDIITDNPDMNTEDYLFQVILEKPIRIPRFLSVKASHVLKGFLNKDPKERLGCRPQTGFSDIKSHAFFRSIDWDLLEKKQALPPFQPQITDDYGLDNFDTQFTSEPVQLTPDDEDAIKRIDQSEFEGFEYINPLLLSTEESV
Text: as §1

[5] = biological target: 320 wild-type protein kinases (Homo sapiens, UniProt Q86V86); details: singlicate
Text: as §1

[6] = biological target: T3, 320 wild-type protein kinases (Homo sapiens, UniProt Q9H2K8); details: kinase TAOK3, singlicate
T3 sequence (Q9H2K8 1-898): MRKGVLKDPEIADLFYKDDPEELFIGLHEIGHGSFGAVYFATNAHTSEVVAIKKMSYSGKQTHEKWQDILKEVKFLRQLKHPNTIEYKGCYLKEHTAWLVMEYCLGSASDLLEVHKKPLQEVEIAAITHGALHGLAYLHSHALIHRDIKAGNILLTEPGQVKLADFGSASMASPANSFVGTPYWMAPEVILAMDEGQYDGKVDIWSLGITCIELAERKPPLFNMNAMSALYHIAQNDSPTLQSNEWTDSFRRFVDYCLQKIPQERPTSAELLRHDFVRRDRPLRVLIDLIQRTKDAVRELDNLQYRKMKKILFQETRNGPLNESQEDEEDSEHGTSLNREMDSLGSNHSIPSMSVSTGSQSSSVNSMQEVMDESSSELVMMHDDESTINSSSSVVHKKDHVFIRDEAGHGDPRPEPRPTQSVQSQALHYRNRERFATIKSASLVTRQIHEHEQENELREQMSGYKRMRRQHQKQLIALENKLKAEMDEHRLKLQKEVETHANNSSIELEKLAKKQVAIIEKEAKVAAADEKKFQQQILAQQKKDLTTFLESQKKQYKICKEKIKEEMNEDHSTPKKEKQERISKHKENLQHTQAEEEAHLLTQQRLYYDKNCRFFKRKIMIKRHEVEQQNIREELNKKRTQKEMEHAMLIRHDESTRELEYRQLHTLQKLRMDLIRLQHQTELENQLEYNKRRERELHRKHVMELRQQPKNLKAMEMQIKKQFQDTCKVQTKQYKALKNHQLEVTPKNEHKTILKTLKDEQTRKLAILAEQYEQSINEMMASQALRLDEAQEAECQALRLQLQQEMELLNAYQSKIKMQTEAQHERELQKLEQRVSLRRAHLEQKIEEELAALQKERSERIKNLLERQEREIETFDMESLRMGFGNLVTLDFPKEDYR
Text: as §1

Chain of 320 wild-type protein kinases (Homo sapiens, UniProt P06241) (P06241 whole entry): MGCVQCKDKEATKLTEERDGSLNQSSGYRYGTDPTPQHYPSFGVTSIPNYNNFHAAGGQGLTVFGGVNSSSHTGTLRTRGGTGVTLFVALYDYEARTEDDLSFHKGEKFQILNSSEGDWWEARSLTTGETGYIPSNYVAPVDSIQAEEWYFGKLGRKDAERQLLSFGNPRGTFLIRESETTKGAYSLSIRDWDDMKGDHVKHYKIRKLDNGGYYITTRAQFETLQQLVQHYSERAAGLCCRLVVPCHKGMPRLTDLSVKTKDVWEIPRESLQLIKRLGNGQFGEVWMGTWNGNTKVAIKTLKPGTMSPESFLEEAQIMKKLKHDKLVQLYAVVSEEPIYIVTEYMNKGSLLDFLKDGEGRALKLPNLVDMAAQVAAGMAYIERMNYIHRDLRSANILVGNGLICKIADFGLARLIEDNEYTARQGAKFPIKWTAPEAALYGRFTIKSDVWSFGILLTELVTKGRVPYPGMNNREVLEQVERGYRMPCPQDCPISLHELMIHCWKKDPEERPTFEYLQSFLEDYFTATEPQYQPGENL

`C#Cc1cc(Nc2ncnc3cc(I)ccc23)ccc1Cl` [Compound 41] was tested, and the Residual activity ([1]; 1.0E-06 M) was 101 % of control, the Residual activity ([1]; 1.0E-07 M) was 107 % of control and the “Residual activity, ZAP70” value ([2]; assay conc. 1.0E-06 M) was 103 % of control. For the same compound, the “Residual activity, ZAP70” value ([2]; assay conc. 1.0E-07 M) was 111 % of control, the Residual activity ([3]; CLK3, 1.0E-06 M) was 128 % of control and the Residual activity ([3]; CLK3, 1.0E-07 M) was 146 % of control. For the same compound, the Residual activity ([4]; 1.0E-06 M) was 76 % of control, the Residual activity ([4]; 1.0E-07 M) was 87 % of control and the Residual activity ([5]; PIM3, 1.0E-06 M) was 83 % of control. The Residual activity ([5]; PIM3, 1.0E-07 M) was 81 % of control, the “Residual activity, TAOK3” value ([6]; assay conc. 1.0E-06 M) was 93 % of control and the “Residual activity, TAOK3” value ([6]; assay conc. 1.0E-07 M) was 87 % of control.
In the case of `C#Cc1cc(Nc2ncnc3cc(OC)c(OC)cc23)ccc1Cl` [Compound 45], the Residual activity ([1]; 1.0E-06 M) is reported as 76 % of control, the Residual activity ([1]; 1.0E-07 M) is reported as 110 % of control and the “Residual activity, ZAP70” value ([2]; assay conc. 1.0E-06 M) is reported as 104 % of control. For the same compound, the “Residual activity, ZAP70” value ([2]; assay conc. 1.0E-07 M) was 100 % of control, the Residual activity ([3]; CLK3, 1.0E-06 M) was 133 % of control and the Residual activity ([3]; CLK3, 1.0E-07 M) was 127 % of control. For the same compound, the Residual activity ([4]; 1.0E-06 M) was 85 % of control, the Residual activity ([4]; 1.0E-07 M) was 73 % of control and the Residual activity ([5]; PIM3, 1.0E-06 M) was 53 % of control. The Residual activity ([5]; PIM3, 1.0E-07 M) was 81 % of control, the “Residual activity, TAOK3” value ([6]; assay conc. 1.0E-06 M) was 106 % of control and the “Residual activity, TAOK3” value ([6]; assay conc. 1.0E-07 M) was 92 % of control.
